# Structures can show the parent of a compound that is named as a salt.
# Columns and labels:
# Format in all cases: biochemical, rat (Male Sprague-Dawley)
# [1] = system: 5-HT (serotonin) uptake; test: 5-HT (serotonin) uptake inhibition, synaptosomal preparation (cortex); details: 5-hydroxytryptamine, rat cortex synaptosomes, 0.1 μM tritiated amine, 37° C., 4 minutes
# Method: (§1) For the purpose of identifying compounds as biogenic amine uptake inhibitors capable of interacting with the uptake carrier, ligand-carrier binding assays were carried out as an initial sceen.
# (§2) Male Sprague-Dawley derived rats, weighing about 180-250 g each (purchased from Sasco Animal Laboratories, Oregon, Wis.) were sacrificed by decapitation. The brains were immediately removed, placed on a chilled glass plate and dissected according to a modification of the method of Glowinski and Iversen (J. Glowinski and L. L. Iversen, J Neurochem, 1966, 13: 655-669). First, the rhombencephalon was separated by a transverse section and discarded. The rest of the brain was divided into two portions by making another transverse section at the level of the optic chiasma. The hypothalamus, which was used for norepinephrine uptake studies, was removed from the posterior part by using the anterior commissure as the horizontal reference point and a line between the posterior hypothalamus and mammillary bodies as the caudal limit. The striatum, which was used for dopamine uptake studies, was also dissected from the posterior portion using the external wall of the lateral ventricle as the internal limit and the corpus collosum as the external limit. The frontal parts of the striatum were removed from the anterior portion of the cerebrum and combined with the striatal tissue from the posterior segment. The cortex, which was used for serotonin uptake studies, was composed of the rest of the anterior portion of the cerebrum and the cortical surfaces removed from the posterior segment. The hypothalamus and the striatum each weighed about 100 mg or slightly less, whereas the cortex weighed up to 800 mg. The tissues were placed in a cold Potter-Elvehjem glass homogenizer with 5 (cortex) or 10 (hypothalamus) or 20 (striatum) volumes of ice-cold 0.32M sucrose, pH 7, and homogenized by hand. The homogenate was centrifuged (on a Multifuge®, American Scientific Products) at 2500 rpm for 10 minutes in a refrigerated room (~4° C.). The supernatant fraction containing the synaptosomes was decanted, mixed thoroughly and kept on crushed ice for use in the uptake studies.
# (§3) Uptake studies were conducted according to the method of Snyder and Coyle (S. H. Snyder and J. T. Coyle, J Pharmacol Exp Ther, 1969, 165: 78-86) with minor modifications. Usually a 0.1 mL aliquot of the synaptosomal preparation was incubated in a mixture of 0.75 mL of modified Krebs-Ringerbuffer, 0.05 mL of the drug being tested, and 0.1 mL of a 1 μM solution of the labeled (tritiated) amine (final concentration 0.1 μM), for a total volume of 1 mL. The modified Krebs-Ringer bicarbonate buffer used in these studies contained 118 mM sodium chloride, 4 mM potassium chloride, 1.3 mM calcium chloride, 1.12 mM potassium dihydrogen phosphate, 1.2 mM magnesium sulfate and 24 mM sodium bicarbonate, with the addition of 5 mM glucose, 0.15 mM disodium EDTA, 12.5 μM nialamide and 1 mM ascorbic acid. Uptake was initiated by the addition of the tritiated amine and the mixture was incubated at 37° C. in a Dubnoff Metabolic Shaking Incubator for 4 minutes. A preincubation period was not included since it had been reported that results were similar with and without preincubation of the synaptosomal preparation (G. Vosmer, et al. Biochem Pharmacol, 1980, 24: 2557-2562). Control incubations without the test drug were conducted at 37° C. to determine total uptake and at 0° C. (in a crushed ice bath) to correct for the diffusion of the tritiated amine into the synaptosomes and/or binding.
# (§4) Filtration was used to terminate uptake and collect the synaptosomes (C. A. Csernansky, et al. J Pharmacol Methods, 1985, 13: 187-191). In the filtration technique, the incubation mixture was diluted with ice-cold 0.9% aqueous sodium chloride solution and filtered through GF/B glass microfiber filters (Whatman) under reduced pressure. […]
# [2] = system: norepinephrine uptake; test: NE (norepinephrine) uptake inhibition, synaptosomal preparation (hypothalamus); details: rat hypothalamus synaptosomes, 0.1 μM tritiated amine, 37° C., 4 minutes
# Method: as §1, §2, §3, §4
# [3] = system: dopamine uptake; test: DA (dopamine) uptake inhibition, synaptosomal preparation (striatum); details: rat striatum synaptosomes, 0.1 μM tritiated amine, 37° C., 4 minutes
# Method: as §1, §2, §3, §4
Structure (SMILES),IC50 [1],IC50 [2],IC50 [3],IC50 ([1]; hydrochloride),IC50 ([2]; hydrochloride),IC50 ([3]; hydrochloride)
"CC1C[C@H]2c3ccccc3CC[C@H]2CN1Cc1ccccc1 (relative stereo) [Example 71A, cis-2-Methyl-1,2,3,4,4a,5,6,10b-octahydro-3-phenylmethyl-benz[f]isoquinoline]",2120 nM,9.8 nM,450 nM,–,–,–
"Cc1cccc(CC2NCC3c4ccccc4CCC23)c1 (stereo not drawn) [Example 11, cis-2,3,3a,4,5,9b-Hexahydro-3-(3-methylphenyl)methyl-1H-benz[e]isoindole hydrochloride]",827 nM,238 nM,5140 nM,–,–,–
"Cc1cccc(CC2C3CCc4ccccc4C3CN2C)c1 (stereo not drawn) [Example 12, cis-2,3,3a,4,5,9b-Hexahydro-2-methyl-3-(3-methylphenyl)methyl-1H-benz[e]isoindole hydrochloride]",1780 nM,37 nM,571 nM,–,–,–
"COc1ccc2c(c1)CCC1C(Cc3cccc(F)c3)NCC21 (stereo not drawn) [Example 26, trans-3-(3-Fluorophenyl)methyl-2,3,3a,4,5,9b-hexahydro-7-methoxy-1H-benz[e]isoindole hydrochloride]",2260 nM,603 nM,9040 nM,–,–,–
"COc1cccc2c1CCC1C(Cc3ccccc3)NCC21 (stereo not drawn) [Example 21, cis-2,3,3a,4,5,9b-Hexahydro-6-methoxy-3-phenylmethyl-1H-benz[e]isoindole methanesulfonic acid salt]",13100 nM,758 nM,5490 nM,–,–,–
"CN1CC2c3ccccc3CCC2C1Cc1cccc(Cl)c1 (single isomer, unassigned) [Example 47, 3-(3-Chlorophenyl)methyl-2,3,3a,4,5,9b-hexahydro-2-methyl-1H-benz[e]isoindole hydrochloride]",1260 nM,41 nM,225 nM,–,–,–
"CC1C[C@H]2c3ccccc3CC[C@H]2CN1Cc1ccccc1 (relative stereo) [Example 71B, cis-2-Methyl-1,2,3,4,4a,5,6,10b-octahydro-3-phenylmethyl-benz[f]isoquinoline]",2050 nM,11.9 nM,633 nM,–,–,–
"COc1ccc(C)c2c1CCC1C2CN(C)C1Cc1ccccc1 (stereo not drawn) [Example 38, cis-2,9-Dimethyl-2,3,3a,4,5,9b-hexahydro-6-methoxy-3-phenylmethyl-1H-benz[e]isoindole hydrochloride]",3570 nM,261 nM,1330 nM,–,–,–
"CN1CC2c3ccccc3CCC2CCC1Cc1ccccc1 (single isomer, unassigned) [Example 75A, cis-2-Methyl-1,3,4,5,5a,6,7,11b-octahydro-3-phenylmethyl-2H-naphth[1,2-c]azepine hydrochloride]",–,–,–,227 nM,30 nM,444 nM
"COc1cccc2c1CCC1CCC(Cc3ccccc3)N(C)CC21 (single isomer, unassigned) [Example 76B, 8-Methoxy-2-methyl-1,3,4,5,5a,6,7,11b-octahydro-3-phenylmethyl-2H-naphth[1,2-c]azepine hydrochloride]",–,–,–,344 nM,234 nM,2190 nM
"CCN1CC2c3cccc(OC)c3CCC2C1Cc1cccc(F)c1 (stereo not drawn) [Example 25, cis-2-Ethyl-3-(3-fluorophenyl)methyl-2,3,3a,4,5,9b-hexahydro-6-methoxy-1H-benz[e]isoindole hydrochloride]",1900 nM,27 nM,197 nM,–,–,–
"COc1ccc2c(c1)CCC1C2CN(C)C1Cc1cccc(F)c1 (stereo not drawn) [Example 28, cis-3-(3-Fluorophenyl)methyl-2,3,3a,4,5,9b-hexahydro-7-methoxy-2-methyl-1H-benz[e]isoindole hydrochloride]",–,–,–,1870 nM,78 nM,213 nM
"CCN1CC2c3ccc(OC)cc3CCC2C1Cc1ccccc1 (stereo not drawn) [Example 3, cis-2-Ethyl-2,3,3a,4,5,9b-hexahydro-7-methoxy-3-phenylmethyl-1H-benz[e]isoindole methanesulfonate salt]",1400 nM,18 nM,225 nM,–,–,–
